This test addresses T1, FATP2 (Mus musculus, UniProt O35488).
T1 construct: gene Slc27a2; endogenous full-length FATP2 in native mouse αTC1-6 pancreatic α cell line (ATCC)
Description: BODIPY-labelled C18 fatty acid uptake (QBT fluorescence assay). The format is cell-based. The conditions noted are these: native αTC1-6 cells; 1 h preincubation, 37°C; 2.5 μM BODIPY-C18 fatty acid with 0.2% fatty acid-free albumin; uptake read at 60 s. The text has this:
BODIPY-labelled C18 fatty acid uptake (QBT fluorescence assay) on FATP2 | fatty acid uptake was blocked by the FATP2 inhibitor lipofermata

T1 sequence (O35488 whole entry): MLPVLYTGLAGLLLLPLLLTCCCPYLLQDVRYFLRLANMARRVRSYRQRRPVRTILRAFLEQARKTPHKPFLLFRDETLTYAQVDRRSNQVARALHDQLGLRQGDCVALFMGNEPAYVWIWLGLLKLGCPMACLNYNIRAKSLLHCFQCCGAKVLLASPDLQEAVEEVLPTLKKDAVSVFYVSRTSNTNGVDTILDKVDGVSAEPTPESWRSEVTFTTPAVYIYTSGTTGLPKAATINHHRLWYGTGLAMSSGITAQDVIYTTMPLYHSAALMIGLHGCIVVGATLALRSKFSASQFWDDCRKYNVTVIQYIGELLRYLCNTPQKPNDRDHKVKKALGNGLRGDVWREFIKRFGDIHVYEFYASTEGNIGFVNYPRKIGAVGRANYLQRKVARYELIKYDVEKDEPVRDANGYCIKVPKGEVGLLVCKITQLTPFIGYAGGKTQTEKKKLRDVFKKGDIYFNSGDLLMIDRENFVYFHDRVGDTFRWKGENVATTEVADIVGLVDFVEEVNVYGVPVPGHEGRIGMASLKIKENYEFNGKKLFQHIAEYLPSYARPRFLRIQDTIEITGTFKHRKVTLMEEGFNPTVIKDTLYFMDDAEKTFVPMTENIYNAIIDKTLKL

As to `O=C1Nc2ccc(Br)cc2C12NN=C(c1ccccc1)S2` (stereo not shown) [lipofermata, 5-bromo-5′-phenylspiro[3H-1,3,4-thiadiazole-2,3′-indoline]-2-1], the IC50 was 5.4 µM.

Usually IC50 stands for the point on the concentration scale where inhibition reaches its midpoint. Read a low IC50 as greater potency in that assay.

These data come from paper PMC12646670, “Fatty acid transport protein 2 inhibition enhances glucose tolerance through α cell–mediated GLP-1 secretion” (The Journal of Clinical Investigation, 2025).
